Test results reported in ChEMBL document CHEMBL3124779, “Discovery of ABT-267, a pan-genotypic inhibitor of HCV NS5A” (J Med Chem, 2014).

Legend:
Hepatitis C virus [1] = experiment: Ratio of EC50 for HCV1b Con1 infected in human HuH7 cells in presence of 40% human plasma to EC50 for HCV1b Con1 infected in human HuH7 cells in absence of 40% human plasma; assay type: functional, Hepacivirus hominis, isolate Con1, Huh-7
Hepatitis C virus [2] = experiment: Antiviral activity against HCV1a H77 infected in human HuH7 cells assessed as inhibition of viral replication after 4 days by luciferase reporter gene assay; assay type: functional, organism-based, Hepacivirus hominis; settings: genotype 1a H77, Huh-7, 96 h
Hepatitis C virus [3] = experiment: Antiviral activity against HCV1b Con1 infected in human HuH7 cells assessed as inhibition of viral replication after 4 days by luciferase reporter gene assay in presence of 40% human plasma; assay type: functional, organism-based, Hepacivirus hominis; settings: isolate Con1, Huh-7, Plasma, 96 h
Hepatitis C virus [4] = experiment: Antiviral activity against HCV1b Con1 infected in human HuH7 cells assessed as inhibition of viral replication after 4 days by luciferase reporter gene assay; assay type: functional, organism-based, Hepacivirus hominis; settings: isolate Con1, Huh-7, 96 h
Hepatitis C virus [5] = experiment: Antiviral activity against HCV1a H77 infected in human HuH7 cells assessed as inhibition of viral replication after 4 days by luciferase reporter gene assay in presence of 40% human plasma; assay type: functional, organism-based, Hepacivirus hominis; settings: genotype 1a H77, Huh-7, Plasma, 96 h
Hepatitis C virus [6] = experiment: Ratio of EC50 for HCV1a H77 infected in human HuH7 cells in presence of 40% human plasma to EC50 for HCV1a H77 infected in human HuH7 cells in absence of 40% human plasma; assay type: functional, Hepacivirus hominis, genotype 1a H77, Huh-7

Row | SMILES | EC50 (Hepatitis C virus [2]) [nM] | EC50 (Hepatitis C virus [3]) [nM] | EC50 (Hepatitis C virus [4]) [nM] | EC50 (Hepatitis C virus [5]) [nM] | Ratio EC50 (Hepatitis C virus [1]) | Ratio EC50 (Hepatitis C virus [6])
1 | COC(=O)N[C@H](C(=O)N1CCC[C@H]1C(=O)Nc1ccc([C@@H]2CC[C@@H](c3ccc(NC(=O)[C@@H]4CCCN4C(=O)[C@@H](NC(=O)OC)C(C)C)cc3)N2c2ccc(OC)cc2)cc1)C(C)C | 0.992 | 0.447 | 0.076 | 5.92 | 6 | 6
2 | COC(=O)N[C@H](C(=O)N1CCC[C@H]1C(=O)Nc1ccc([C@H]2CC[C@H](c3ccc(NC(=O)[C@@H]4CCCN4C(=O)[C@@H](NC(=O)OC)C(C)C)cc3)N2c2ccc(C3CC3)cc2)cc1)C(C)C | 0.164 | 0.114 | 0.0087 | 1.68 | 13 | 10
3 | COC(=O)N[C@H](C(=O)N1CCC[C@H]1C(=O)Nc1ccc([C@@H]2CC[C@@H](c3ccc(NC(=O)[C@@H]4CCCN4C(=O)[C@@H](NC(=O)OC)C(C)C)cc3)N2c2ccc(C(C)(C)CO)cc2)cc1)C(C)C | 0.116 | 0.948 | 0.095 | 1.47 | 10 | 13
4 | COC(=O)N[C@H](C(=O)N1CCC[C@H]1C(=O)Nc1ccc([C@@H]2CC[C@@H](c3ccc(NC(=O)[C@@H]4CCCN4C(=O)[C@@H](NC(=O)OC)C(C)C)cc3)N2c2ccc(-c3cccnc3)cc2)cc1)C(C)C | 0.143 | 0.597 | 0.069 | 2.57 | 9 | 18
5 | COC(=O)N[C@H](C(=O)N1CCC[C@H]1C(=O)Nc1ccc([C@H]2CC[C@H](c3ccc(NC(=O)[C@@H]4CCCN4C(=O)[C@@H](NC(=O)OC)C(C)(C)C)cc3)N2c2ccc(N3CCOCC3)cc2)cc1)C(C)(C)C | 1.24 | 1.6 | 0.211 | 11.2 | 8 | 9
6 | COC(=O)N[C@H](C(=O)N1CCC[C@H]1C(=O)Nc1ccc(CN(Cc2ccc(NC(=O)[C@@H]3CCCN3C(=O)[C@@H](NC(=O)OC)C(C)C)cc2)c2ccc(F)cc2)cc1)C(C)C | 38 | – | 0.4 | – | – | –
7 | COC(=O)N[C@H](C(=O)N1CCC[C@H]1C(=O)Nc1ccc([C@@H]2CC[C@@H](c3ccc(NC(=O)[C@@H]4CCCN4C(=O)[C@@H](NC(=O)OC)C(C)C)cc3)N2)cc1)C(C)C | 253 | – | 282 | – | – | –
8 | COC(=O)N[C@H](C(=O)N1CCC[C@H]1C(=O)Nc1ccc([C@H]2CC[C@@H](c3ccc(NC(=O)[C@@H]4CCCN4C(=O)[C@@H](NC(=O)OC)C(C)C)cc3)N2c2ccc(F)cc2)cc1)C(C)C | 22 | 0.3 | 0.09 | 81 | 3 | 4
9 | CC[C@H](C)[C@H](NC(=O)OC)C(=O)N1CCC[C@H]1C(=O)Nc1ccc([C@@H]2CC[C@@H](c3ccc(NC(=O)[C@@H]4CCCN4C(=O)[C@@H](NC(=O)OC)[C@@H](C)CC)cc3)N2c2ccc(F)cc2)cc1 (mixture of isomers) | 1.31 | 0.171 | 0.03 | 9.79 | 6 | 7
10 | COC(=O)N[C@H](C(=O)N1CCC[C@H]1C(=O)Nc1ccc([C@@H]2CC[C@@H](c3ccc(NC(=O)[C@@H]4CCCN4C(=O)[C@@H](NC(=O)OC)c4ccccc4)cc3)N2c2ccc(F)cc2)cc1)c1ccccc1 (mixture of isomers) | 1.06 | 0.073 | 0.002 | 22.8 | 37 | 22
11 | COC(=O)N[C@H](C(=O)N1CCC[C@H]1C(=O)Nc1ccc([C@@H]2CC[C@@H](c3ccc(NC(=O)[C@@H]4CCCN4C(=O)[C@@H](NC(=O)OC)C(C)(C)O)cc3)N2c2ccc(F)cc2)cc1)C(C)(C)O (mixture of isomers) | 0.6 | 2.6 | 0.05 | 18 | 52 | 30
12 | COC(=O)N[C@H](C(=O)N1CCC[C@H]1C(=O)Nc1ccc([C@@H]2CC[C@@H](c3ccc(NC(=O)[C@@H]4CCCN4C(=O)[C@@H](NC(=O)OC)C(C)C)cc3)N2c2ccc(Br)cc2)cc1)C(C)C (mixture of isomers) | 0.286 | 0.089 | 0.0068 | 4.46 | 13 | 16
13 | COC(=O)N[C@H](C(=O)N1CCC[C@H]1C(=O)Nc1ccc([C@@H]2CC[C@@H](c3ccc(NC(=O)[C@@H]4CCCN4C(=O)[C@@H](NC(=O)OC)C(C)C)cc3)N2c2ccc(O)cc2)cc1)C(C)C (mixture of isomers) | 23 | 59.5 | 6.54 | 242 | 9 | 11
14 | COC(=O)N[C@H](C(=O)N1CCC[C@H]1C(=O)Nc1ccc([C@@H]2CC[C@@H](c3ccc(NC(=O)[C@@H]4CCCN4C(=O)[C@@H](NC(=O)OC)C(C)C)cc3)N2c2ccc(C(C)C)cc2)cc1)C(C)C (mixture of isomers) | 0.033 | 0.086 | 0.0079 | 0.706 | 11 | 21
15 | COC(=O)N[C@H](C(=O)N1CCC[C@H]1C(=O)Nc1ccc([C@@H]2CC[C@@H](c3ccc(NC(=O)[C@@H]4CCCN4C(=O)[C@@H](NC(=O)OC)C(C)C)cc3)N2c2ccc(-c3ccccc3)cc2)cc1)C(C)C (mixture of isomers) | 0.89 | 0.256 | 0.011 | 1.69 | 23 | 19

Further compounds by falling EC50 (Hepatitis C virus [2]), results first:

Row | EC50 (Hepatitis C virus [2]) [nM] | EC50 (Hepatitis C virus [3]) [nM] | EC50 (Hepatitis C virus [4]) [nM] | EC50 (Hepatitis C virus [5]) [nM] | SMILES | Ratio EC50 (Hepatitis C virus [1]) | Ratio EC50 (Hepatitis C virus [6])
16 | 6.22 | 0.278 | 0.032 | 103 | COC(=O)N[C@H](C(=O)N1CCC[C@H]1C(=O)Nc1ccc([C@H]2CC[C@@H](c3ccc(NC(=O)[C@@H]4CCCN4C(=O)[C@@H](NC(=O)OC)C(C)(C)C)cc3)N2c2ccc(F)cc2)cc1)C(C)(C)C | 9 | 17
17 | 4.6 | 1 | 0.14 | 34 | CC[C@H](NC(=O)OC)C(=O)N1CCC[C@H]1C(=O)Nc1ccc([C@@H]2CC[C@@H](c3ccc(NC(=O)[C@@H]4CCCN4C(=O)[C@H](CC)NC(=O)OC)cc3)N2c2ccc(F)cc2)cc1 | 7 | 7
18 | 0.829 | 0.184 | 0.011 | 14.3 | COC(=O)N[C@H](C(=O)N1CCC[C@H]1C(=O)Nc1ccc([C@H]2CC[C@H](c3ccc(NC(=O)[C@@H]4CCCN4C(=O)[C@@H](NC(=O)OC)C(C)(C)C)cc3)N2c2ccc(C(F)(F)F)cc2)cc1)C(C)(C)C | 17 | 17
19 | 0.72 | 0.204 | 0.04 | 4.36 | COC(=O)N[C@H](C(=O)N1CCC[C@H]1C(=O)Nc1ccc([C@@H]2CC[C@@H](c3ccc(NC(=O)[C@@H]4CCCN4C(=O)[C@@H](NC(=O)OC)C(C)C)cc3)N2c2ccc(C)cc2)cc1)C(C)C (mixture of isomers) | 5 | 6
20 | 0.659 | 3.42 | 0.226 | 27.6 | COC(=O)N[C@H](C(=O)N1CCC[C@H]1C(=O)Nc1ccc([C@H]2CC[C@H](c3ccc(NC(=O)[C@@H]4CCCN4C(=O)[C@@H](NC(=O)OC)C(C)(C)C)cc3)N2c2ccc(S(C)(=O)=O)cc2)cc1)C(C)(C)C | 15 | 42
21 | 0.37 | 0.3 | 0.03 | 4.07 | COC(=O)N[C@H](C(=O)N1CCC[C@H]1C(=O)Nc1ccc([C@@H]2CC[C@@H](c3ccc(NC(=O)[C@@H]4CCCN4C(=O)[C@@H](NC(=O)OC)C(C)C)cc3)N2c2ccc(Cl)cc2)cc1)C(C)C (mixture of isomers) | 10 | 11
22 | 0.202 | 0.09 | 0.01 | 6.56 | CC[C@@H](C)[C@H](NC(=O)OC)C(=O)N1CCC[C@H]1C(=O)Nc1ccc([C@@H]2CC[C@@H](c3ccc(NC(=O)[C@@H]4CCCN4C(=O)[C@@H](NC(=O)OC)[C@H](C)CC)cc3)N2c2ccc(F)cc2)cc1 (mixture of isomers) | 9 | 32
23 | 0.099 | 0.211 | 0.0088 | 4.14 | COC(=O)N[C@H](C(=O)N1CCC[C@H]1C(=O)Nc1ccc([C@@H]2CC[C@@H](c3ccc(NC(=O)[C@@H]4CCCN4C(=O)[C@@H](NC(=O)OC)C(C)(C)C)cc3)N2c2ccc(C(F)(F)F)cc2)cc1)C(C)(C)C | 24 | 42
